The values that follow come from article PMC11456916, “A screen for cell envelope stress uncovers an inhibitor of prolipoprotein diacylglyceryl transferase, Lgt, in Escherichiacoli” (iScience, 2024).

As usually defined, the IC50 is the point on the concentration scale where inhibition reaches its midpoint. Low readings indicate higher potency, high ones lower potency.

Assay [1] deals with E. coli ΔlgtΔtolC-pore pCHAP9231. Briefly: MIC with arabinose-titrated lgt expression. It counts as cell-based. The settings on record: lgt expression driven solely by arabinose from pCHAP9231. From the text:
We next turned to genetic approaches to confirm the mechanism of action of MAC-0452936. […] To that end, we screened the E. coli CRISPRi collection in the ΔtolC-pore genetic background with a sub-inhibitory concentration of MAC-0452936 and measured the fitness of all 356 CRISPRi mutants (Figure 4C and Data S4). […] Depletion of Lgt by CRISPRi provided supporting evidence that MAC-0452936 targeted Lgt in E. coli; however, we sought to confirm this observation using a parallel genetic approach. We hypothesized that MAC-0452936 potency would also be affected by high-copy expression of lgt. To that end, we introduced either an arabinose inducible copy of lgt supplied on the pCHAP9231 plasmid[48] or the pBAD19s plasmid as a control into E. coli ΔtolC-pore and tested the potency of MAC-0452936 (Figure 4E). Induction of lgt expression with arabinose suppressed the activity of MAC-0452936 by about 8-fold. […] To test this hypothesis, we constructed E. coli ΔlgtΔtolC-pore with pCHAP9231[48] so that lgt expression was driven solely by arabinose from the plasmid. […] To test this observation with MAC-0452936, we introduced an lpp deletion into our screening strain E. coli ΔtolC-pore and assessed the activity of our Lgt inhibitor in this mutant background. […]

The subject of assay [2] is E. coli CFT073. Briefly: MIC assay with or without SPR741, E. coli CFT073. In kind it is cell-based. As to conditions: Escherichia coli. The method, then:
(§1) We next sought to determine whether we could achieve growth inhibition of wild-type E. coli using MAC-0452936 and an antibiotic adjuvant. […] To that end, we determined the MIC of MAC-0452936 against wild-type E. coli in the presence and absence of a sub-MIC concentration of SPR741 (Figure S8B). […] We leveraged this combination to characterize the spectrum of activity of MAC-0452936 against a panel of Gram-negative pathogens (Table 2). In the presence of 8 μg/mL SPR741, we observed MAC-0452936 activity against the clinical E. coli isolates C0244 and CFT073 at 2 μg/mL as well as against Salmonella Typhimurium SL1344 at 4 μg/mL.
(§2) For MIC assays, cultures of bacteria were grown in LB broth. Overnight cultures were diluted (1:100) into fresh LB media and grown to the mid-log phase of growth (OD600 ∼0.5). Subcultures were then normalized to an OD600 of 0.1, and diluted (1:5000) into assay media. Assay plates were then incubated for 18 h at 37°C, then OD600 was measured using a Biotek Neo plate reader.

Assay [3] has as its target T1, prolipoprotein diacylglyceryl transferase, Lgt (Escherichia coli, UniProt P60955).
T1 construct: Expression, purification, and in vitro Lgt biochemical assay were conducted as described by Diao et al; made in house
The assay can be described thus: In vitro Lgt biochemical assay (phosphatidylglycerol and Pal-IAAC peptide substrates). The arrangement: species or system E. coli. From the text:
With both genetic and phenotypic evidence supporting MAC-0452936 inhibiting Lgt in E. coli, we next investigated whether MAC-0452936 could inhibit Lgt activity in vitro. Recently, a biochemical assay for Lgt activity was developed using phosphatidylglycerol and Pal-IAAC peptide as substrates.[12] […] As similar results were obtained using two different Lgt enzyme preparations, the inhibition observed by MAC-0452936 was not dependent on the preparation of the lipid matrix. Together, we present genetic, phenotypic, and biochemical evidence that MAC-0452936 inhibits the growth of E. coli through inhibition of Lgt. MAC-0452936 represents a previously undiscovered small molecule inhibitor of bacterial Lgt, and the oxime ester represents a promising chemical scaffold for antibiotic discovery.
Expression, purification, and in vitro Lgt biochemical assay were conducted as described by Diao et al.[12]

In assay [4] the test system is E. coli BW25113. The assay can be described thus: MIC assay, wild-type E. coli with or without SPR741. It counts as cell-based. The method, then: as §1, §2
The test system of assay [5] is E. coli ΔtolC. Briefly: MIC assay, E. coli ΔtolC. In kind it is cell-based. The settings on record: growth inhibition, in words. The method, then:
as §2

Entries after “also recorded” stand apart in the source; their conditions may differ. Read-outs that look alike come from different tables or passages of the source.

T1 sequence (P60955 whole entry): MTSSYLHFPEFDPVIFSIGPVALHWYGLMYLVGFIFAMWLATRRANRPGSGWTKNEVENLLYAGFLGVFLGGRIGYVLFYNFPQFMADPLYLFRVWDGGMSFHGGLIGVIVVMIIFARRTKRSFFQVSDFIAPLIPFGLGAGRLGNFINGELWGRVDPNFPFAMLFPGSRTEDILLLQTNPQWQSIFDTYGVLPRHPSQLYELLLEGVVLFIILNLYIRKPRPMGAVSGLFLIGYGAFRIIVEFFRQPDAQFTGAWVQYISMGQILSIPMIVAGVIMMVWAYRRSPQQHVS

As to `COc1ccc(C(=O)O/N=C(\c2cccs2)C(C)(C)C)cc1` [MAC-0452936, (Z)-2-Pivaloylthiophene O-(4-methoxybenzoyl) oxime], the “change of MIC with increasing arabinose concentrations” value in assay [1] was “dose-dependent increase in the MIC; also recorded: increase with increasing”. Further, the MIC is 2 µg/mL in assay [2] (CFT073, read-out: MIC, E. coli CFT073 + 8 μg/mL SPR741); above 64 µg/mL in assay [2] (CFT073, read-out: MIC, E. coli CFT073 + 0 μg/mL SPR741); above 64 µg/mL in assay [4] (Escherichia coli, BW25113, read-out: MIC, E. coli BW25113 + 0 μg/mL SPR741). Besides, the IC50 in assay [3] (in vitro Lgt inhibition Amph-Lgt IC50, Lgt purified using amphipol lipid matrix) is 590 nM; in assay [3] (in vitro Lgt inhibition DDM-Lgt IC50, Lgt purified using DDM lipid matrix), 1450 nM. Also, the “activity against wild-type (WT) E. coli” value in assay [4] (growth inhibition, no SPR741, in words) was “inactive”. Besides, the “activity against E. coli ΔtolC” value in assay [5] is “active”.
